Test results published in the supplement of paper PMC10307832.

Experiments:
Experiment in all cases: relative viability (nuclei count vs DMSO), 5 days (fraction); higher = more cells survive
BMX-IN-1 + Tozasertib = compound: C=CC(=O)Nc1cc(-n2c(=O)ccc3cnc4ccc(-c5ccc(NS(C)(=O)=O)cc5)cc4c32)ccc1C [BMX-IN-1] + Cc1cc(Nc2cc(N3CCN(C)CC3)nc(Sc3ccc(NC(=O)C4CC4)cc3)n2)n[nH]1 [Tozasertib] (partner 0.1 µM)
Outline: (§1)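 Nuclei were stained with Hoechst during a one-step fixation (final 0.05% Triton X-100, 1% formaldehyde, 1 ug/ml Hoechst) carried out 5 days after dosing, then counted on 4× images. The cells, lung cancer lines in 1536-well plates, had been dosed by pin tool the day after seeding with one drug alone or a fixed anchor-drug dose plus five library-drug doses (not always all listed) in √10 steps. Relative viability is the nuclei count in treated wells divided by that in vehicle wells, and each value is the median of duplicate plates.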

PAC-1 + Crizotinib = compound: C=CCc1cccc(/C=N/NC(=O)CN2CCN(Cc3ccccc3)CC2)c1O [PAC-1] + C[C@@H](Oc1cc(-c2cnn(C3CCNCC3)c2)cnc1N)c1c(Cl)ccc(F)c1Cl [Crizotinib] (partner 1 µM)
Outline: as §1

PAC-1 + Lapatinib = compound: C=CCc1cccc(/C=N/NC(=O)CN2CCN(Cc3ccccc3)CC2)c1O [PAC-1] + CS(=O)(=O)CCNCc1ccc(-c2ccc3ncnc(Nc4ccc(OCc5cccc(F)c5)c(Cl)c4)c3c2)o1 [Lapatinib] (partner 2 µM)
Outline: as §1

Ibrutinib + Dasatinib = compound: C=CC(=O)N1CCC[C@@H](n2nc(-c3ccc(Oc4ccccc4)cc3)c3c(N)ncnc32)C1 [Ibrutinib] + Cc1nc(Nc2ncc(C(=O)Nc3c(C)cccc3Cl)s2)cc(N2CCN(CCO)CC2)n1 [Dasatinib] (partner 0.075 µM)
Outline: as §1

Cell Line | relative viability (BMX-IN-1 + Tozasertib; first compound 0.02 µM) | relative viability (BMX-IN-1 + Tozasertib; first compound 0.2 µM) | relative viability (BMX-IN-1 + Tozasertib; first compound 0.6325 µM) | relative viability (BMX-IN-1 + Tozasertib; first compound 2 µM) | relative viability (PAC-1 + Crizotinib; first compound 0.02 µM) | relative viability (PAC-1 + Crizotinib; first compound 0.06325 µM) | relative viability (PAC-1 + Crizotinib; first compound 0.2 µM) | relative viability (PAC-1 + Crizotinib; first compound 2 µM) | relative viability (PAC-1 + Lapatinib; first compound 0.02 µM) | relative viability (PAC-1 + Lapatinib; first compound 0.06325 µM) | relative viability (PAC-1 + Lapatinib; first compound 0.2 µM) | relative viability (PAC-1 + Lapatinib; first compound 2 µM) | relative viability (Ibrutinib + Dasatinib; first compound 0.005 µM) | relative viability (Ibrutinib + Dasatinib; first compound 0.01581 µM) | relative viability (Ibrutinib + Dasatinib; first compound 0.05 µM) | relative viability (Ibrutinib + Dasatinib; first compound 0.1581 µM) | relative viability (Ibrutinib + Dasatinib; first compound 0.5 µM)
201T | 1.17 | 0.997 | 0.953 | 0.896 | 1.07 | 1.09 | 1.02 | 1.05 | 0.98 | 1.01 | 1.1 | 1.05 | 0.58 | 0.517 | 0.6 | 0.58 | 0.608
A549 |  |  |  |  | 0.747 | 0.793 | 0.706 | 0.77 | 0.935 | 0.804 | 1 | 1.06 |  |  |  |  | 
A-427 | 0.183 | 0.182 | 0.21 | 0.2 | 0.896 | 1.01 | 0.797 | 0.836 | 1.06 | 1.03 | 1.08 | 0.71 | 0.625 | 0.677 | 0.769 | 0.666 | 0.655
ABC-1 | 0.199 | 0.162 | 0.145 | 0.172 | 1.09 | 1.16 | 1.11 | 1.34 | 1.35 | 1.22 | 1.18 | 1.07 | 0.493 |  | 0.628 | 0.555 | 0.633
BEN | 0.58 | 0.498 | 0.52 | 0.507 | 0.92 | 0.882 | 0.804 | 0.832 | 0.629 | 0.604 | 0.671 | 0.75 |  | 0.291 | 0.232 | 0.273 | 0.314
CAL-12T | 0.345 | 0.375 | 0.344 | 0.297 | 0.72 | 0.828 | 0.551 | 0.578 | 0.604 | 0.788 | 0.665 | 0.599 | 0.363 | 0.295 | 0.354 | 0.475 | 0.24
COR-L23 | 0.186 | 0.312 | 0.213 | 0.212 | 0.646 | 0.607 | 0.599 | 0.624 | 1.06 | 0.963 | 0.833 | 0.928 | 0.614 | 0.396 | 0.497 | 0.513 | 0.544
COR-L 105 | 0.388 | 0.318 | 0.76 | 0.358 | 0.873 | 0.915 | 0.774 | 0.64 | 0.294 | 0.361 | 0.413 | 0.406 | 0.258 | 0.369 | 0.229 | 0.322 | 0.162
Calu-6 |  |  |  |  | 0.728 | 0.823 | 0.8 | 0.867 | 1.06 | 1.08 | 1.01 | 1.18 |  |  |  |  | 
ChaGo-K-1 | 0.216 | 0.227 | 0.218 | 0.237 | 1.15 | 1.17 | 1.09 | 1.03 |  |  |  |  | 0.599 | 0.479 | 0.553 | 0.485 | 0.587
EBC-1 |  |  |  |  | 0.194 | 0.175 | 0.201 | 0.178 | 0.184 | 0.218 | 0.23 | 0.225 |  |  |  |  | 
EKVX | 0.519 | 0.468 | 0.445 | 0.383 | 1.19 | 1.22 | 0.893 | 0.866 | 0.203 | 0.18 | 0.208 | 0.176 | 0.525 | 0.455 | 0.481 | 0.489 | 0.352
EMC-BAC-2 | 0.286 | 0.287 | 0.289 | 0.274 | 0.771 | 0.709 | 0.796 | 0.72 | 0.841 | 0.865 | 0.899 | 0.974 | 0.314 | 0.316 | 0.346 | 0.343 | 0.296
EPLC-272H | 0.218 | 0.222 | 0.279 | 0.245 |  | 0.95 | 0.789 | 0.818 |  | 1.2 | 0.978 | 0.942 | 0.274 | 0.294 | 0.284 | 0.279 | 0.188
H3255 | 0.788 | 0.648 | 0.577 | 0.624 | 0.936 | 0.848 | 0.82 | 0.825 | 0.268 | 0.256 | 0.246 | 0.269 | 0.35 | 0.346 | 0.276 | 0.292 | 0.242
HARA | 0.0824 | 0.0995 | 0.111 | 0.092 | 0.955 | 1.03 | 1.01 | 1.06 | 0.698 | 0.875 | 0.796 | 0.905 | 0.288 | 0.235 | 0.223 | 0.236 | 0.194
HCC-15 | 0.449 | 0.53 | 0.531 | 0.398 | 0.788 | 0.878 | 0.785 | 0.82 | 0.907 | 0.945 | 0.814 | 0.861 | 0.678 | 0.615 | 0.637 | 0.51 | 0.66
